Reference: PMC12313019, “Fibrotic lung ECM upregulates SDC4/integrin-αvβ1 interaction and the interfering peptide SDC4_87-131 and its derivative peptides alleviate pulmonary fibrosis” (Regenerative Biomaterials, 2025)

How the values were obtained:
integrin-αvβ1 = integrin-αvβ1 (Homo sapiens, UniProt P05556+P06756); assay: SPR binding of peptides to integrin-αvβ1 (Biacore 8K+); conditions: 25°C, Figure 7E
Procedure: The Biacore 8K+ system (GE Healthcare) was used at 25°C. The ligand integrin-αvβ1 (1 mg/mL) was routinely coupled to the sensor chip (Series S Sensor Chip CM5, Cytiva, #100530). The peptide samples SDC4_87-131 and CS-1, -2, -3, -4, -8, -9, -10 were dissolved in PBS, and then, the samples with different concentration gradients (0.78, 1.56, 3.125, 6.25, 12.5, 25, 50, 100 μM) were injected, respectively, under the driving of buffer PBST (PBS + 0.05% Tween-20). The signal intensity was quantified in relative units (RU), and binding affinity was determined using the dissociation constant (Kd). After the experiment, 10 mM glycine-HCl buffer solution (pH = 2) was selected to regenerate the chip surface.

SDC4/integrin-αv = assay: Duolink-PLA, SDC4/integrin-αv interaction in BLM lung tissue; format: in vivo, mouse; conditions: SDC4_87-131 1 mg/kg ITD q3d; C8 10 mg/kg IP qd; Anti-SDC4(93-121) 8 mg/kg ITD day 3 and 10; n=5
Procedure: After the mice were anesthetized (1% sodium pentobarbital 50 mg/kg was injected intraperitoneally), 150 μL of bleomycin (BLM, 5 mg/mL, BIO-000001) was inhaled into the lungs of the mice by tracheal inhalation instillation. One day later, the mice were randomly divided into model and drug treatment groups, and the mice in the control group were only subjected to saline inhalation.
Cells or tissue slices were attached to slides, fixed and permeabilized and blocked with Duolink^TM (Merck, MO, USA) blocking buffer. Antibodies against the extracellular domain of SDC4 (5G9, mouse IgG, SCBT #sc-12766), integrin-αv (rabbit IgG, CST #4711) and integrin-β1 (rabbit IgG, CST #34971) were diluted and added to the samples and incubated overnight at 4°C. After washing, PLUS and MINUS (proximity ligation assay, PLA) probes were added to the samples and incubated at 37°C for 1 h. After washing, the samples were sequentially incubated with PLUS and MINUS (PLA) probes, ligation buffer and amplification buffer containing polymerase. Finally, the samples were mounted with in situ mounting medium containing DAPI. Images were acquired using a Leica SP5 confocal microscope (Leica Biosystems, Germany) and quantitative analysis was performed using ImageJ software.

integrin-β1 = assay: Flow cytometry of integrin-β1 activation (9EG7) in fibroblast; format: cell-based, mouse; conditions: SDC4_87-131 100 nM, C8 20 nM, 48 h
Procedure: Decellularized lung ECM (dECM) was prepared as described in previous study. 2 × 10^5 cells/mL NIH3T3 cells (mouse […], purchased from the Stem Cell Bank of the Chinese Academy of Sciences, Shanghai, China) were seeded on the dECM slices attached to the bottom of the culture dish and cultured in DMEM medium containing 0.5% fetal bovine serum (Gibco, Waltham, MA, USA) at 37°C and 5% CO2.
The single cell suspension of mouse lung tissue was obtained by grinding. After the remaining red blood cells were lysed with ACK Lysis Buffer (TBD, NH4CL2009), 1×10^6 cells/100 μL of cells were added with Fixable Viability Stain 780 (BD, #565388). After incubation at room temperature in the dark for 10-15 min, the suspension was washed twice with PBS containing 1%-2% FBS. The FCR antibody TruStain FcX™ PLUS (BD, #156603) was added to the cell suspension at a ratio of 0.25 μL:100 μL and blocked on ice for 10 min. Then, the antibody was incubated at an appropriate concentration and time according to the manufacturer's instructions. Antibodies include CD45 (Biolegend, #157619), CD140a (Thermo Fisher, #25-1401-82), SDC-4 (Sino Biological, #50726-R112-P), SP-C (Bioss, #bs-10067R-FITC) and Integrin-β1 (9Eg7, BD, 553715), and AF647 anti-Rat (CST, #4418S) was used as the secondary antibody. After incubation, cells were washed and resuspended, and detected using LSRFortessaX-20 (BD).

Sequence of integrin-αvβ1 (P06756 31-992 limits assumed): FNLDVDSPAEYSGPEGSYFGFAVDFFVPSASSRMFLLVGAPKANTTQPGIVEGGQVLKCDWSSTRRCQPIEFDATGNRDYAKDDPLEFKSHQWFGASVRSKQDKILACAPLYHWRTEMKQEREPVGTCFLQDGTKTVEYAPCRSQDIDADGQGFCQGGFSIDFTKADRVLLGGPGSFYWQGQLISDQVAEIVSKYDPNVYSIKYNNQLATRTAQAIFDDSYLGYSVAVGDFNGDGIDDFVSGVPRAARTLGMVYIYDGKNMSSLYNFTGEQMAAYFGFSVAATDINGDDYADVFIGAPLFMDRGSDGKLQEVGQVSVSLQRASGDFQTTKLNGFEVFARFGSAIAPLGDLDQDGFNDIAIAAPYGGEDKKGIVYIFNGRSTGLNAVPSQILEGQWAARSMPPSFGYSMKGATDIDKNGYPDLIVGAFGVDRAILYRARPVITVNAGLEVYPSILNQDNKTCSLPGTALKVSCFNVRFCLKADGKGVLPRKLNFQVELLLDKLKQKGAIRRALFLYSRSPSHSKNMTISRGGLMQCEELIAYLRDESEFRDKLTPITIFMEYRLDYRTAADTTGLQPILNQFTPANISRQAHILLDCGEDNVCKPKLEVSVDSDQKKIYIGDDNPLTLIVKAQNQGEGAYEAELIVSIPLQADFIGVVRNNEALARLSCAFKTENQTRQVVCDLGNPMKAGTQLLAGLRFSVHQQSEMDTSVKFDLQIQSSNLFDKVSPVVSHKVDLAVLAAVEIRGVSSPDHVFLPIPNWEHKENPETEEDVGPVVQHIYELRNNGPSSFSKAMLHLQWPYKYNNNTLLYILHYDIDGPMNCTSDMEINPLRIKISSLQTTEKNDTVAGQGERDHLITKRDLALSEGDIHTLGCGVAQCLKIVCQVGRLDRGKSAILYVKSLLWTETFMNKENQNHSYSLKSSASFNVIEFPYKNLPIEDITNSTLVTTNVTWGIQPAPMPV
Sequence of integrin-αvβ1 (P05556 21-728 partner limits assumed): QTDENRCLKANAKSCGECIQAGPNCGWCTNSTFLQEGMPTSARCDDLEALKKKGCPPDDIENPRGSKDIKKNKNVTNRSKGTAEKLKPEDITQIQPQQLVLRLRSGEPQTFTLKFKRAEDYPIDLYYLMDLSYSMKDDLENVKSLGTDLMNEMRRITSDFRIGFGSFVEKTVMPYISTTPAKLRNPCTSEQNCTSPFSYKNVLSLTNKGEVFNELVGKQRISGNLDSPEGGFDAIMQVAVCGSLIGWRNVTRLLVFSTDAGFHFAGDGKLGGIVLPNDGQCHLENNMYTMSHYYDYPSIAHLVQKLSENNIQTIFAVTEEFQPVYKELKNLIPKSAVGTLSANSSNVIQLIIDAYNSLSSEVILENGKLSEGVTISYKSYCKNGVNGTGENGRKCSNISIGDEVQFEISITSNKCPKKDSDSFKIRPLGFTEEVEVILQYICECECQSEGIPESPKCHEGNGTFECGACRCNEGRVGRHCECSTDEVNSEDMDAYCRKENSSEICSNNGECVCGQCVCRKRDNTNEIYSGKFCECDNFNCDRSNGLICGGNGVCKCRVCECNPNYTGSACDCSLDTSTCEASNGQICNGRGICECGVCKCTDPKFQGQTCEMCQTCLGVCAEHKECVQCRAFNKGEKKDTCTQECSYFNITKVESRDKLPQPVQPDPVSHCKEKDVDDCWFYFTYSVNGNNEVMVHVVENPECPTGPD

Ac-NHIPERAGSGSQVPTEPKKLEENEVIPKRISPVEESEDVSNKVSM-NH2 [SDC4_87-131]
affinity (in words) (integrin-αvβ1): nM level | interaction of integrin-αv and SDC4 in BLM lung tissue (SDC4/integrin-αv): could reduce the interaction of integrin-αv and SDC4 | dECM-PF-induced integrin-β1 activation (integrin-β1): significantly inhibited dECM-PF-induced integrin-β1 activation
